# In PubChem BioAssay AID2060352 (Molecular Pharmacology Branch, DTP, NCI, 2025):
# System: 616215-338-R-J1-PDC spheroid with HUVEC/MSC, viability
# Experiment: Anticancer human tumor 616215-338-R-J1-PDC patient-derived colon adenocarcinoma cell line growth inhibition [TAK]
# Settings: for IC50: curve of first compound; for viability, T/C: stronger effect = lower value
# In short: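 Tumor cells were grown as spheroids with HUVEC and hMSC (60:25:15) and treated with targeted agents combined with TAK-243 or ipatasertib. Drugs were tested in half-log steps down from near the clinical Cmax, or from 10 microM where Cmax was unknown.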
# 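Also: spheroids exposed to drugs for 7 days before readout.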
smiles,measurement,setting,value
CC(C)n1nc(-c2ccc3oc(N)nc3c2)c2c(N)ncnc21 + CC(C)NCC(C(=O)N1CCN(c2ncnc3c2C(C)CC3O)CC1)c1ccc(Cl)cc1,IC50,second compound 0.3 µM,0.0858 µM
same,IC50,second compound 0.949 µM,0.0183 µM
same,IC50,second compound 3 µM,0.00273 µM
same,IC50,second compound 9.49 µM,< 0.000316 µM
same,IC50,second compound 30 µM,< 0.000316 µM
same,"viability, T/C","second compound 0.3 µM, first compound 0.000316 µM",93.5%
same,"viability, T/C","second compound 0.3 µM, first compound 0.001 µM",99.9%
same,"viability, T/C","second compound 0.3 µM, first compound 0.00316 µM",107%
same,"viability, T/C","second compound 0.3 µM, first compound 0.01 µM",130%
same,"viability, T/C","second compound 0.3 µM, first compound 0.0316 µM",112%
same,"viability, T/C","second compound 0.3 µM, first compound 0.1 µM",41.2%
same,"viability, T/C","second compound 0.949 µM, first compound 0.000316 µM",112%
same,"viability, T/C","second compound 0.949 µM, first compound 0.001 µM",119%
same,"viability, T/C","second compound 0.949 µM, first compound 0.00316 µM",109%
same,"viability, T/C","second compound 0.949 µM, first compound 0.01 µM",66.6%
same,"viability, T/C","second compound 0.949 µM, first compound 0.0316 µM",36.7%
same,"viability, T/C","second compound 0.949 µM, first compound 0.1 µM",22.3%
same,"viability, T/C","second compound 3 µM, first compound 0.000316 µM",77.2%
same,"viability, T/C","second compound 3 µM, first compound 0.001 µM",74.2%
same,"viability, T/C","second compound 3 µM, first compound 0.00316 µM",43.5%
same,"viability, T/C","second compound 3 µM, first compound 0.01 µM",28.2%
same,"viability, T/C","second compound 3 µM, first compound 0.0316 µM",17.5%
same,"viability, T/C","second compound 3 µM, first compound 0.1 µM",13.7%
same,"viability, T/C","second compound 9.49 µM, first compound 0.000316 µM",28.6%
same,"viability, T/C","second compound 9.49 µM, first compound 0.001 µM",25.8%
same,"viability, T/C","second compound 9.49 µM, first compound 0.00316 µM",19%
same,"viability, T/C","second compound 9.49 µM, first compound 0.01 µM",13.1%
same,"viability, T/C","second compound 9.49 µM, first compound 0.0316 µM",11%
same,"viability, T/C","second compound 9.49 µM, first compound 0.1 µM",10.2%
same,"viability, T/C","second compound 30 µM, first compound 0.000316 µM",12.6%
same,"viability, T/C","second compound 30 µM, first compound 0.001 µM",11.5%
same,"viability, T/C","second compound 30 µM, first compound 0.00316 µM",11.4%
same,"viability, T/C","second compound 30 µM, first compound 0.01 µM",7.84%
same,"viability, T/C","second compound 30 µM, first compound 0.0316 µM",7.49%
same,"viability, T/C","second compound 30 µM, first compound 0.1 µM",7.08%
CCCS(=O)(=O)Nc1ccc(F)c(C(=O)c2c[nH]c3ncc(-c4ccc(Cl)cc4)cc23)c1F + CC(C)NCC(C(=O)N1CCN(c2ncnc3c2C(C)CC3O)CC1)c1ccc(Cl)cc1,IC50,second compound 0.3 µM,7.5 µM
same,IC50,second compound 0.949 µM,6.75 µM
same,IC50,second compound 3 µM,2.76 µM
same,IC50,second compound 9.49 µM,< 0.316 µM
same,IC50,second compound 30 µM,< 0.316 µM
same,"viability, T/C","second compound 0.3 µM, first compound 0.316 µM",90.8%
same,"viability, T/C","second compound 0.3 µM, first compound 1 µM",98.1%
same,"viability, T/C","second compound 0.3 µM, first compound 3.16 µM",103%
same,"viability, T/C","second compound 0.3 µM, first compound 10 µM",23.8%
same,"viability, T/C","second compound 0.3 µM, first compound 31.6 µM",3.87%
same,"viability, T/C","second compound 0.3 µM, first compound 100 µM",75%
same,"viability, T/C","second compound 0.949 µM, first compound 0.316 µM",107%
same,"viability, T/C","second compound 0.949 µM, first compound 1 µM",114%
same,"viability, T/C","second compound 0.949 µM, first compound 3.16 µM",104%
same,"viability, T/C","second compound 0.949 µM, first compound 10 µM",16.6%
same,"viability, T/C","second compound 0.949 µM, first compound 31.6 µM",1.77%
same,"viability, T/C","second compound 0.949 µM, first compound 100 µM",46.8%
same,"viability, T/C","second compound 3 µM, first compound 0.316 µM",90.5%
same,"viability, T/C","second compound 3 µM, first compound 1 µM",76.8%
same,"viability, T/C","second compound 3 µM, first compound 3.16 µM",48%
same,"viability, T/C","second compound 3 µM, first compound 10 µM",7.53%
same,"viability, T/C","second compound 3 µM, first compound 31.6 µM",0.1%
same,"viability, T/C","second compound 3 µM, first compound 100 µM",3.35%
same,"viability, T/C","second compound 9.49 µM, first compound 0.316 µM",29.1%
same,"viability, T/C","second compound 9.49 µM, first compound 1 µM",28.8%
same,"viability, T/C","second compound 9.49 µM, first compound 3.16 µM",23.2%
same,"viability, T/C","second compound 9.49 µM, first compound 10 µM",3.54%
same,"viability, T/C","second compound 9.49 µM, first compound 31.6 µM",0.12%
same,"viability, T/C","second compound 9.49 µM, first compound 100 µM",1.39%
same,"viability, T/C","second compound 30 µM, first compound 0.316 µM",14.1%
same,"viability, T/C","second compound 30 µM, first compound 1 µM",15.2%
same,"viability, T/C","second compound 30 µM, first compound 3.16 µM",9.06%
same,"viability, T/C","second compound 30 µM, first compound 10 µM",0.4%
same,"viability, T/C","second compound 30 µM, first compound 31.6 µM",0.13%
same,"viability, T/C","second compound 30 µM, first compound 100 µM",0.3%
